Measurements taken from US8946270B2, “Amido-pyridyl ether compounds and compositions and their use against parasites” (Merial Limited, priority 2011, dated 2015).
Where two headings read alike, the source gives them in different places.

Experiments:
Haematobia irritans = experiment: whole plant or invertebrate; settings: 5 μg/cm^2; for mortality at 5 µg/cm2: Haematobia irritans, read-out: Contact SP Horn Fly PCT Mortality (%)
Method: A solution of the test compound was used to treat a filter paper contained within a Petri dish and the filter paper was allowed to evaporate to dryness. A small piece of absorbent cotton moistened with 10% sucrose and ten adult flies (Haematobia irritans or Stomoxys calcitrans) were added to each dish. Dishes were capped and held at room temperature. Assessments were performed at 4 and 24 hours after infestation in comparison with untreated controls.

[1] = system: Rhipicephalus sanguineus (Brown Dog Tick); experiment: whole plant or invertebrate; settings: for mortality at 200 ppm: Rhipicephalus sanguineus, read-out: Contact SP Rhicicep PCT Mortality (%); for Contact SP Rhicicep PCT Mortality (%): 200 ppm
Source text: A solution of the test compound was used to coat the inner wall of glass vials and to treat two filter papers. Once dried, one filter paper was placed in the cap of the vial and the other in the bottom of the vial. Each treated vial was infested with 10 adult Rhipicephalus sanguineus (Brown Dog Tick). […]

In the case of `CC(C)CNC(=O)c1ccc(C(C)COc2cccc(OC(F)(F)F)c2)cn1` (racemic) [Compound 251], the “Contact SP Horn Fly PCT Mortality (%)” value (Haematobia irritans; timepoint 4 hrs) is reported as 80% and the “Contact SP Horn Fly PCT Mortality (%)” value (Haematobia irritans; timepoint 24 hrs) is reported as 100%.
`CC(C)CNC(=O)c1ccc(COc2ccc(OC(F)(F)F)cc2)cn1` [Compound 10] gave a mortality at 5 µg/cm2 (Haematobia irritans; timepoint 4 hrs) of 90%, a mortality at 5 µg/cm2 (Haematobia irritans; timepoint 24 hrs) of 90% and a mortality at 200 ppm ([1]; timepoint 4 hrs) of 0%. The mortality at 200 ppm ([1]; timepoint 24 hrs) was 100%.
For `COCCCNC(=O)c1ccc(COc2ccc(OC(F)(F)F)cc2)cn1` [Compound 18], the “Contact SP Horn Fly PCT Mortality (%)” value (Haematobia irritans; timepoint 4 hrs) was 0% and the “Contact SP Horn Fly PCT Mortality (%)” value (Haematobia irritans; timepoint 24 hrs) was 40%.
In the case of `CCNC(=O)c1ccc(COc2ccc(OC(F)(F)F)cc2)cn1` [Compound 23], the “Contact SP Rhicicep PCT Mortality (%)” value ([1]; timepoint 4 hrs) is reported as 80% and the “Contact SP Rhicicep PCT Mortality (%)” value ([1]; timepoint 24 hrs) is reported as 90%.
With `CCCNC(=O)c1ccc(COc2ccc(OC(F)(F)F)cc2)cn1` [Compound 34] the “Contact SP Horn Fly PCT Mortality (%)” value (Haematobia irritans; timepoint 4 hrs) was 60% and the “Contact SP Horn Fly PCT Mortality (%)” value (Haematobia irritans; timepoint 24 hrs) was 80%.
With `C=C(C)CNC(=O)c1ccc(COc2ccc(OC(F)(F)F)cc2)cn1` [Compound 38] the “Contact SP Horn Fly PCT Mortality (%)” value (Haematobia irritans; timepoint 4 hrs) was 50% and the “Contact SP Horn Fly PCT Mortality (%)” value (Haematobia irritans; timepoint 24 hrs) was 80%.
In the case of `CCCCNC(=O)c1ccc(COc2ccc(OC(F)(F)F)cc2)cn1` [Compound 40], the “Contact SP Horn Fly PCT Mortality (%)” value (Haematobia irritans; timepoint 4 hrs) is reported as 0% and the “Contact SP Horn Fly PCT Mortality (%)” value (Haematobia irritans; timepoint 24 hrs) is reported as 40%.
`CCC(C)CNC(=O)c1ccc(COc2ccc(OC(F)(F)F)cc2)cn1` (stereo not drawn) [Compound 41] showed a mortality at 5 µg/cm2 (Haematobia irritans; timepoint 4 hrs) of 60% and a mortality at 5 µg/cm2 (Haematobia irritans; timepoint 24 hrs) of 60%.
For `CSCCNC(=O)c1ccc(COc2cccc(OC(F)(F)F)c2)cn1` [Compound 49], the mortality at 5 µg/cm2 (Haematobia irritans; timepoint 4 hrs) was 60% and the mortality at 5 µg/cm2 (Haematobia irritans; timepoint 24 hrs) was 0%.
For `CC(C)NC(=O)c1ccc(COc2cccc(OC(F)(F)F)c2)cn1` [Compound 50], the “Contact SP Horn Fly PCT Mortality (%)” value (Haematobia irritans; timepoint 4 hrs) was 70% and the “Contact SP Horn Fly PCT Mortality (%)” value (Haematobia irritans; timepoint 24 hrs) was 80%.
In the case of `C=C(C)CNC(=O)c1ccc(COc2cccc(OC(F)(F)F)c2)cn1` [Compound 53], the “Contact SP Horn Fly PCT Mortality (%)” value (Haematobia irritans; timepoint 4 hrs) is reported as 20% and the “Contact SP Horn Fly PCT Mortality (%)” value (Haematobia irritans; timepoint 24 hrs) is reported as 20%.
With `CCC(C)CNC(=O)c1ccc(COc2cccc(OC(F)(F)F)c2)cn1` (stereo not drawn) [Compound 57] the “Contact SP Horn Fly PCT Mortality (%)” value (Haematobia irritans; timepoint 4 hrs) was 70% and the “Contact SP Horn Fly PCT Mortality (%)” value (Haematobia irritans; timepoint 24 hrs) was 80%.
With `Cc1cccc(OCc2ccc(C(=O)NCC3CC3)nc2)c1` [Compound 61] the “Contact SP Horn Fly PCT Mortality (%)” value (Haematobia irritans; timepoint 4 hrs) was 90% and the “Contact SP Horn Fly PCT Mortality (%)” value (Haematobia irritans; timepoint 24 hrs) was 90%.
With `CCc1cccc(OCc2ccc(C(=O)NCC3CCOCC3)nc2)c1` [Compound 68] the mortality at 200 ppm ([1]; timepoint 4 hrs) was 50% and the mortality at 200 ppm ([1]; timepoint 24 hrs) was 90%.
With `CCc1cccc(OCc2ccc(C(=O)NCCSC)nc2)c1` [Compound 70] the “Contact SP Rhicicep PCT Mortality (%)” value ([1]; timepoint 4 hrs) was 80% and the “Contact SP Rhicicep PCT Mortality (%)” value ([1]; timepoint 24 hrs) was 100%.
With `CCc1cccc(OCc2ccc(C(=O)NCC3CC3)nc2)c1` [Compound 73] the “Contact SP Horn Fly PCT Mortality (%)” value (Haematobia irritans; timepoint 4 hrs) was 100% and the “Contact SP Horn Fly PCT Mortality (%)” value (Haematobia irritans; timepoint 24 hrs) was 100%.
With `O=C(NCC1CC1)c1ccc(COc2ccc(C(F)(F)F)cc2)cn1` [Compound 95] the “Contact SP Horn Fly PCT Mortality (%)” value (Haematobia irritans; timepoint 4 hrs) was 50% and the “Contact SP Horn Fly PCT Mortality (%)” value (Haematobia irritans; timepoint 24 hrs) was 70%.
With `O=C(NCc1ccncc1)c1ccc(COc2cc(F)cc(Br)c2)cn1` [Compound 114] the “Contact SP Rhicicep PCT Mortality (%)” value ([1]; timepoint 4 hrs) was 40% and the “Contact SP Rhicicep PCT Mortality (%)” value ([1]; timepoint 24 hrs) was 60%.
`CSCCNC(=O)c1ccc(COc2cc(F)cc(Br)c2)cn1` [Compound 115] was tested, and the “Contact SP Horn Fly PCT Mortality (%)” value (Haematobia irritans; timepoint 4 hrs) was 0% and the “Contact SP Horn Fly PCT Mortality (%)” value (Haematobia irritans; timepoint 24 hrs) was 60%.
With `CCCNC(=O)c1ccc(COc2cc(F)cc(Br)c2)cn1` [Compound 120] the “Contact SP Rhicicep PCT Mortality (%)” value ([1]; timepoint 4 hrs) was 60% and the “Contact SP Rhicicep PCT Mortality (%)” value ([1]; timepoint 24 hrs) was 70%.
In the case of `O=C(NCCc1ccccn1)c1ccc(COc2cc(F)cc(Br)c2)cn1` [Compound 121], the “Contact SP Horn Fly PCT Mortality (%)” value (Haematobia irritans; timepoint 4 hrs) is reported as 80% and the “Contact SP Horn Fly PCT Mortality (%)” value (Haematobia irritans; timepoint 24 hrs) is reported as 80%.
`CC(C)CNC(=O)c1ccc(COc2cc(F)cc(Br)c2)cn1` [Compound 125] showed a mortality at 5 µg/cm2 (Haematobia irritans; timepoint 4 hrs) of 100% and a mortality at 5 µg/cm2 (Haematobia irritans; timepoint 24 hrs) of 100%.
For `CC(C)CCNC(=O)c1ccc(COc2cc(F)cc(Br)c2)cn1` [Compound 129], the mortality at 5 µg/cm2 (Haematobia irritans; timepoint 4 hrs) was 40% and the mortality at 5 µg/cm2 (Haematobia irritans; timepoint 24 hrs) was 40%.
For `CC(C)CNC(=O)c1ccc(COCc2cccc(OC(F)(F)F)c2)cn1` [Compound 132], the “Contact SP Horn Fly PCT Mortality (%)” value (Haematobia irritans; timepoint 4 hrs) was 100% and the “Contact SP Horn Fly PCT Mortality (%)” value (Haematobia irritans; timepoint 24 hrs) was 100%.
Work on `CC(C)CNC(=O)c1ccc(COCc2ccc(OC(F)(F)F)cc2)cn1` [Compound 133] yielded a mortality at 5 µg/cm2 (Haematobia irritans; timepoint 4 hrs) of 80% and a mortality at 5 µg/cm2 (Haematobia irritans; timepoint 24 hrs) of 80%.
In the case of `C=C(C)CNC(=O)c1ccc(COc2cccc(OC)c2)cn1` [Compound 150], the “Contact SP Rhicicep PCT Mortality (%)” value ([1]; timepoint 4 hrs) is reported as 70% and the “Contact SP Rhicicep PCT Mortality (%)” value ([1]; timepoint 24 hrs) is reported as 70%.
For `COc1cccc(OCc2ccc(C(=O)NCC(C)C)nc2)c1` [Compound 151], the “Contact SP Rhicicep PCT Mortality (%)” value ([1]; timepoint 4 hrs) was 0% and the “Contact SP Rhicicep PCT Mortality (%)” value ([1]; timepoint 24 hrs) was 80%.
`CC(C)CNC(=O)c1ccc(COc2ccc(F)c(F)c2)cn1` [Compound 155] was tested, and the “Contact SP Rhicicep PCT Mortality (%)” value ([1]; timepoint 4 hrs) was 60% and the “Contact SP Rhicicep PCT Mortality (%)” value ([1]; timepoint 24 hrs) was 100%.
For `COCCCNC(=O)c1ccc(COc2cccc(-c3cccc(F)c3)c2)cn1` [Compound 166], the “Contact SP Rhicicep PCT Mortality (%)” value ([1]; timepoint 4 hrs) was 40% and the “Contact SP Rhicicep PCT Mortality (%)” value ([1]; timepoint 24 hrs) was 80%.
